Data taken from US10582709B2, “Butyrolactones as herbicides” (FMC Corporation, priority 2015, dated 2020).

How the values were obtained:
Format in all cases: in vivo
kochia (Kochia scoparia) [1] = assay: Test A preemergence, kochia; details: visual rating after approx. 10 d, 0 to 100 scale, 0 no effect, 100 complete control
From the text: (§1) Seeds of plant species selected from barnyardgrass (Echinochloa crus-galli), crabgrass (large crabgrass, Digitaria sanguinalis), kochia (Kochia scoparia), ragweed (common ragweed, Ambrosia elatior), morningglory (Ipomoea spp.), velvetleaf (Abutilon theophrasti), ryegrass, Italian (Italian ryegrass, Lolium multiflorum), foxtail, giant (giant foxtail, Setaria faberii), wheat (Triticum aestivum), corn (Zea mays), and pigweed (Amaranthus retroflexus), were planted into a blend of loam soil and sand and treated preemergence with a directed soil spray using test chemicals formulated in a non-phytotoxic solvent mixture which included a surfactant. At the same time, plants selected from these crop and weed species and also blackgrass (Alopecurus myosuroides), and galium (catchweed bedstraw, Galium aparine), were planted in pots containing the same blend of loam soil and sand and treated with postemergence applications of test chemicals formulated in the same manner. Plants ranged in height from 2 to 10 cm and were in the one- to two-leaf stage for the postemergence treatment. Treated plants and untreated controls were maintained in a greenhouse for approximately 10 d, after which time all treated plants were compared to untreated controls and visually evaluated for injury. Plant response ratings, summarized in Table A, are based on a 0 to 100 scale where 0 is no effect and 100 is complete control. A dash (-) response means no test result.

[2] = system: sedge, umbrella (small-flower umbrella sedge, Cyperus difformis); assay: Test B flooded paddy test, umbrella sedge; details: 500 g ai/ha; applied to paddy water at 2-leaf stage; 13 to 15 d; scale 0 no effect to 100 complete control
Method: (§2) Plant species in the flooded paddy test selected from rice (Oryza sativa), sedge, umbrella (small-flower umbrella sedge, Cyperus difformis), ducksalad (Heteranthera limosa), and barnyardgrass (Echinochloa crus-galli) were grown to the 2-leaf stage for testing. At time of treatment, test pots were flooded to 3 cm above the soil surface, treated by application of test compounds directly to the paddy water, and then maintained at that water depth for the duration of the test. Treated plants and controls were maintained in a greenhouse for 13 to 15 d, after which time all species were compared to controls and visually evaluated. Plant response ratings, summarized in Table B, are based on a scale of 0 to 100 where 0 is no effect and 100 is complete control. A dash (-) response means no test result.

[3] = system: blackgrass (Alopecurus myosuroides); assay: Test A postemergence, blackgrass; details: visual rating after approx. 10 d, 0 to 100 scale, 0 no effect, 100 complete control
From the text: as §1

[4] = system: ragweed (common ragweed, Ambrosia elatior); assay: Test A postemergence, ragweed; details: visual rating after approx. 10 d, 0 to 100 scale, 0 no effect, 100 complete control
From the text: as §1

corn (Zea mays) = assay: Test A postemergence, corn; details: visual rating after approx. 10 d, 0 to 100 scale, 0 no effect, 100 complete control
From the text: as §1

[5] = system: ryegrass, Italian (Italian ryegrass, Lolium multiflorum); assay: Test A postemergence, Italian ryegrass; details: visual rating after approx. 10 d, 0 to 100 scale, 0 no effect, 100 complete control
From the text: as §1

[6] = system: barnyardgrass (Echinochloa crus-galli); assay: Test A preemergence, barnyardgrass; details: visual rating after approx. 10 d, 0 to 100 scale, 0 no effect, 100 complete control
From the text: as §1

[7] = system: barnyardgrass (Echinochloa crus-galli); assay: Test B flooded paddy test, barnyardgrass; details: 500 g ai/ha; applied to paddy water at 2-leaf stage; 13 to 15 d; scale 0 no effect to 100 complete control
Method: as §2

[8] = system: ragweed (common ragweed, Ambrosia elatior); assay: Test A preemergence, ragweed; details: visual rating after approx. 10 d, 0 to 100 scale, 0 no effect, 100 complete control
From the text: as §1

[9] = system: ducksalad (Heteranthera limosa); assay: Test B flooded paddy test, ducksalad; details: 500 g ai/ha; applied to paddy water at 2-leaf stage; 13 to 15 d; scale 0 no effect to 100 complete control
Method: as §2

[10] = system: pigweed (Amaranthus retroflexus); assay: Test A preemergence, pigweed; details: visual rating after approx. 10 d, 0 to 100 scale, 0 no effect, 100 complete control
From the text: as §1

[11] = system: foxtail, giant (giant foxtail, Setaria faberii); assay: Test A preemergence, giant foxtail; details: visual rating after approx. 10 d, 0 to 100 scale, 0 no effect, 100 complete control
From the text: as §1

[12] = system: galium (catchweed bedstraw, Galium aparine); assay: Test A postemergence, galium; details: visual rating after approx. 10 d, 0 to 100 scale, 0 no effect, 100 complete control
From the text: as §1

[13] = system: ryegrass, Italian (Italian ryegrass, Lolium multiflorum); assay: Test A preemergence, Italian ryegrass; details: visual rating after approx. 10 d, 0 to 100 scale, 0 no effect, 100 complete control
From the text: as §1

[14] = system: wheat (Triticum aestivum); assay: Test A postemergence, wheat; details: visual rating after approx. 10 d, 0 to 100 scale, 0 no effect, 100 complete control
From the text: as §1

rice (Oryza sativa) = assay: Test B flooded paddy test, rice; details: 500 g ai/ha; applied to paddy water at 2-leaf stage; 13 to 15 d; scale 0 no effect to 100 complete control
Method: as §2

[15] = system: pigweed (Amaranthus retroflexus); assay: Test A postemergence, pigweed; details: visual rating after approx. 10 d, 0 to 100 scale, 0 no effect, 100 complete control
From the text: as §1

[16] = system: foxtail, giant (giant foxtail, Setaria faberii); assay: Test A postemergence, giant foxtail; details: visual rating after approx. 10 d, 0 to 100 scale, 0 no effect, 100 complete control
From the text: as §1

kochia (Kochia scoparia) [17] = assay: Test A postemergence, kochia; details: visual rating after approx. 10 d, 0 to 100 scale, 0 no effect, 100 complete control
From the text: as §1

[18] = system: barnyardgrass (Echinochloa crus-galli); assay: Test A postemergence, barnyardgrass; details: visual rating after approx. 10 d, 0 to 100 scale, 0 no effect, 100 complete control
From the text: as §1

| SMILES | Plant response rating, Kochia (kochia (Kochia scoparia) [1]; 125 g ai/ha) | Plant response rating, Kochia (kochia (Kochia scoparia) [1]; 500 g ai/ha) | Plant response rating, Flood, Sedge, Umbrella [2] | Plant response rating, Blackgrass ([3]; 125 g ai/ha) | Plant response rating, Blackgrass ([3]; 500 g ai/ha) | Plant response rating, Ragweed ([4]; 125 g ai/ha) | Plant response rating, Ragweed ([4]; 500 g ai/ha) | Plant response rating, Corn (corn (Zea mays); 125 g ai/ha) | Plant response rating, Corn (corn (Zea mays); 500 g ai/ha) | Plant response rating, Ryegrass, Italian ([5]; 125 g ai/ha) | Plant response rating, Ryegrass, Italian ([5]; 500 g ai/ha) | Plant response rating, Barnyardgrass ([6]; 125 g ai/ha) | Plant response rating, Barnyardgrass ([6]; 500 g ai/ha) | Plant response rating, Flood, Barnyardgrass [7] | Plant response rating, Ragweed ([8]; 125 g ai/ha) | Plant response rating, Ragweed ([8]; 500 g ai/ha) | Plant response rating, Flood, Ducksalad [9] | Plant response rating, Pigweed ([10]; 125 g ai/ha) | Plant response rating, Pigweed ([10]; 500 g ai/ha) | Plant response rating, Foxtail, Giant ([11]; 125 g ai/ha) | also measured |
| --- | --- | --- | --- | --- | --- | --- | --- | --- | --- | --- | --- | --- | --- | --- | --- | --- | --- | --- | --- | --- | --- |
| O=C(Nc1cccc(F)c1F)C1C(=O)OCC1c1cccc(C(F)(F)F)c1 (racemic) [Compound 12] | 0 | 20 | 0 | 0 | 0 | 0 | 0 | 0 | 0 | 0 | 0 | 20 | 30 | 0 | 0 | 0 | 0 | 0 | 0 | 30 | Plant response rating, Foxtail, Giant ([11]; 500 g ai/ha): 60; Plant response rating, Galium ([12]; 125 g ai/ha): 0; Plant response rating, Galium ([12]; 500 g ai/ha): 0; Plant response rating, Ryegrass, Italian ([13]; 125 g ai/ha): 0; Plant response rating, Ryegrass, Italian ([13]; 500 g ai/ha): 20; Plant response rating, Wheat ([14]; 125 g ai/ha): 0; Plant response rating, Wheat ([14]; 500 g ai/ha): 0; Plant response rating, Flood, Rice (rice (Oryza sativa)): 0; Plant response rating, Pigweed ([15]; 125 g ai/ha): 0; Plant response rating, Pigweed ([15]; 500 g ai/ha): 0; Plant response rating, Foxtail, Giant ([16]; 125 g ai/ha): 30; Plant response rating, Foxtail, Giant ([16]; 500 g ai/ha): 70; Plant response rating, Kochia (kochia (Kochia scoparia) [17]; 125 g ai/ha): 0; Plant response rating, Kochia (kochia (Kochia scoparia) [17]; 500 g ai/ha): 0; Plant response rating, Barnyardgrass ([18]; 125 g ai/ha): 40; Plant response rating, Barnyardgrass ([18]; 500 g ai/ha): 40 |
| O=C(Nc1cccc(F)c1C(F)(F)F)C1C(=O)OCC1c1cccc(C(F)(F)F)c1 (racemic) [Compound 13] | 0 | 0 | 0 | 0 | 0 | 0 | 0 | 0 | 0 | 0 | 0 | 0 | 0 | 0 | 0 | 0 | 0 | 0 | 0 | 40 | Plant response rating, Foxtail, Giant ([11]; 500 g ai/ha): 70; Plant response rating, Galium ([12]; 125 g ai/ha): 0; Plant response rating, Galium ([12]; 500 g ai/ha): 0; Plant response rating, Ryegrass, Italian ([13]; 125 g ai/ha): 0; Plant response rating, Ryegrass, Italian ([13]; 500 g ai/ha): 0; Plant response rating, Wheat ([14]; 125 g ai/ha): 0; Plant response rating, Wheat ([14]; 500 g ai/ha): 0; Plant response rating, Flood, Rice (rice (Oryza sativa)): 0; Plant response rating, Pigweed ([15]; 125 g ai/ha): 0; Plant response rating, Pigweed ([15]; 500 g ai/ha): 0; Plant response rating, Foxtail, Giant ([16]; 125 g ai/ha): 20; Plant response rating, Foxtail, Giant ([16]; 500 g ai/ha): 40; Plant response rating, Kochia (kochia (Kochia scoparia) [17]; 125 g ai/ha): 0; Plant response rating, Kochia (kochia (Kochia scoparia) [17]; 500 g ai/ha): 0; Plant response rating, Barnyardgrass ([18]; 125 g ai/ha): 0; Plant response rating, Barnyardgrass ([18]; 500 g ai/ha): 0 |
| O=C(Nc1ccccc1C(F)(F)F)C1C(=O)OCC1c1cccc(C(F)(F)F)c1 (racemic) [Compound 14] | 0 | 20 | 0 | 0 | 30 | 0 | 0 | 0 | 0 | 0 | 0 | 20 | 20 | 0 | 0 | 0 | 0 | 0 | 0 | 70 | Plant response rating, Foxtail, Giant ([11]; 500 g ai/ha): 90; Plant response rating, Galium ([12]; 125 g ai/ha): 0; Plant response rating, Galium ([12]; 500 g ai/ha): 30; Plant response rating, Ryegrass, Italian ([13]; 125 g ai/ha): 0; Plant response rating, Ryegrass, Italian ([13]; 500 g ai/ha): 20; Plant response rating, Wheat ([14]; 125 g ai/ha): 0; Plant response rating, Wheat ([14]; 500 g ai/ha): 0; Plant response rating, Flood, Rice (rice (Oryza sativa)): 0; Plant response rating, Pigweed ([15]; 125 g ai/ha): 0; Plant response rating, Pigweed ([15]; 500 g ai/ha): 0; Plant response rating, Foxtail, Giant ([16]; 125 g ai/ha): 20; Plant response rating, Foxtail, Giant ([16]; 500 g ai/ha): 70; Plant response rating, Kochia (kochia (Kochia scoparia) [17]; 125 g ai/ha): 0; Plant response rating, Kochia (kochia (Kochia scoparia) [17]; 500 g ai/ha): 0; Plant response rating, Barnyardgrass ([18]; 125 g ai/ha): 0; Plant response rating, Barnyardgrass ([18]; 500 g ai/ha): 20 |
